Experimental data: patent US6884907B2, “Hydroxamic acids and acyl hydroxamines as naaladase inhibitors” (Guilford Pharmaceuticals Inc., priority 2001, dated 2005)

Tests used:
[1] = test system: TGF-β; assay: Effect of NAALADase inhibition on TGF-β in in vivo ischemia model (MCAO); conditions: MCAO rats
Excerpt: The effect of TGF-β neutralizing antibodies on the neuroprotective effect of Compound C was also studied in rats following MCAO.

[2] = test system: TGF-β; assay: Effect of NAALADase inhibition on TGF-β in in vitro ischemia model; type: cell-based; conditions: ischemic cell cultures
Experimental: A NAALADase inhibitor, Compound C, was added to ischemia cell cultures to determine its effect on TGF-β levels during stroke.
TGF-β neutralizing antibodies were then added to the ischemic cell cultures.

[3] = test system: rats with sciatic nerve ligation; assay: Neuropathic pain in chronic constriction injury (CCI) model; type: in vivo; conditions: 50 mg/kg i.p. daily starting 10 days post surgery, versus vehicle, FIG. 8
Experimental: Sciatic nerve ligation, consisting of 4 ligatures tied loosely around the sciatic nerve at 1 mm intervals proximal to the nerve trifurcation, was performed on rats. […] The rats were habituated to a Hargreaves apparatus. An infrared heat source was directed onto the […] surface of each rat's hindpaws and the time taken for the rat to withdraw its paws was noted. The difference in scores between the latency of the response for the paw on the operated side versus the paw on the unoperated control side was determined. The rats received either Compound C (50 mg/kg i.p. daily) or a vehicle starting 10 days post surgery. […] Normal (unoperated) rats had approximately equal latencies for both paws. This effect was significant starting at 11 days of drug treatment and persisted through to the end of the study (for 21 days of daily dosing).

[4] = test system: rats with transected optic nerve; assay: Optic nerve transection (optic nerve fiber counting); type: in vivo, Brown Norway rats (Rattus norvegicus); conditions: 2 weeks after transection
Experimental: All experiments complied with the Association for Research in Vision and Ophthalmology Statement for the Use of Animals in Ophthalmic and Vision Research. 82 male Brown Norway rats (Rattus norvegicus), each weighing approximately 250 gm, were treated using procedures approved by the Animal Care Committee of the Johns Hopkins University School of Medicine. The rats were housed with a 12 hour light/12 hour dark cycle and fed ad libitum.
OPTIC NERVE TRANSECTION: The optic nerve was transected unilaterally in 26 rats under intraperitoneal pentobarbital anesthesia. The conjunctiva was opened with scissors and the optic nerve exposed by traction on extraocular muscles. […]
The area of the optic nerve cross-section was measured by outlining its outer border at 10× magnification on an image analysis system (Universal Imaging Corp., Westchester, Pa.) with Synsys digital camera and Metamorph software. Three area measurements were taken and the mean value was determined. […] These were edited to eliminate non-neural objects and the size of each axon internal to the myelin sheath (its minimum diameter) and the density of axons/square mm were calculated for each image and nerve. […] The number of axons counted among the 10 images was an approximately 20% sample of the 80-90,000 axons in normal rat nerves. […]

[5] = test system: STZ-diabetic animals; assay: Diabetic neuropathy in STZ model (nerve conduction velocity); type: in vivo, rats; conditions: 10 mg/kg daily
Experimental: Motor and sensory nerve conduction velocity was also measured in STZ-diabetic animals after 4, 8 and 12 weeks of treatment (see De Koning et al., supra, for a description of the experimental method). Briefly, stimulating needle electrodes were inserted close to the sciatic and tibial nerves with recording electrodes being placed subcutaneously over the distal foot muscles, in anesthetized rats.

[6] = test system: STZ-induced diabetic rats; assay: Neuropathic pain in STZ model (thermal nociception, Hargreaves apparatus); type: in vivo, Male Sprague-Dawley rats; conditions: 10 mg/kg i.p. daily, treatment started 45 days post-STZ, FIGS. 7A and 7B
Experimental: Male Sprague-Dawley rats (200-225 g) were rendered diabetic by intravenous administration of streptozotocin (“STZ”, 70 mg/kg in phosphate buffered saline). Diabetic animals were divided into five groups: one group receiving Compound A (10 mg/kg or 1 mg/kg), Compound D (10 mg/kg or 1 mg/kg) or vehicle. Another group of animals (non-STZ treated) served as non-diabetic controls. Drug/vehicle treatment was started in diabetic animals 45 days post-STZ administration. STZ-induced diabetic rats were tested for sensitivity to a heat source as soon as blood glucose levels rose to 320 mg/dl or above (30 days post STZ). The rats were then acclimated to a Hargreaves apparatus and thermal nociception was monitored using an infrared heat source directed into the dorsal surface of the hindpaw, and the time taken for the animal to remove its paw noted to the nearest 0.1 seconds (see Hargreaves et al., supra, for detailed experimental method). The intensity of the beam source was adjusted such that the mean latency for control animals (non-STZ treated) was approximately 10 seconds. Each animal was tested 8 times and the mean difference score (between mean non-diabetic control latency and mean diabetic latency) are graphically presented in FIGS. 7A and 7B.

[7] = test system: transgenic G1H mice; assay: Onset of ALS in SOD transgenic mice model of FALS; type: in vivo
Experimental: The effect of NAALADase inhibitors on the onset of ALS was tested using the superoxide dismutase (“SOD”) transgenic mice model of familial Amyotrophic Lateral Sclerosis (“FALS”), which is detailed in Gurney, M., Annals of Neurology (1996) 39:147-157, and otherwise well known in the art. One month old transgenic G1H mice were treated with daily intraperitoneal injections of a vehicle (50 mM HEPES-buffered saline) or a NAALADase inhibitor (50 mg/kg of Compound A). Clinical symptoms of the mice were monitored daily. The onset of clinical disease was scored by examining each mouse for its shaking of limbs when suspended in the air by its tail, cross spread of spinal reflexes, hindlimb paralysis, body weight and wheel running activity.

[8] = test system: BB/W diabetic rats; assay: Progression of neuropathic pain and nerve conduction deficits in BB/W model; type: in vivo, Male BB/W rats
Excerpt: Male BB/W rats (BRI, Mass) spontaneously develop a cell mediated autoimmune destruction of pancreatic B cells, resulting in onset of insulin-dependent (Type I) diabetes (Guberski 1994). […] This renders them valuable for experimental trials of new compounds for future treatments of this major disorder. In the present study, Compound D and Compound A were examined for their ability to alter the progression of diabetic neuropathy. The rats received daily injection of Compound D or Compound A (10 mg/kg i.p.) or vehicle, starting at the onset of diabetes (hyperglycemia) and up to 6 months thereafter. Another group of non-diabetic rats also receiving vehicle were tested. All animals were continuously monitored for body weight, urine volume, blood sugar and glycated haemoglobin. In the first month of the study, all animals were tested for thermal nociception in a Hargreaves apparatus, weekly. After the first month this was done biweekly and then monthly. The testing consists of directing an infrared heat source onto the dorsal surface of the rat hindpaw and noting the time taken for the animal to remove its paw (see Hargreaves et al., supra, for a description of the experimental method). Each animal was tested 8 times and the mean withdrawal latency noted.
Nerve conduction velocity was also measured every two weeks through the first eight weeks of treatment and every month thereafter through to the six months of treatment (see De Koning et al., Peptides, Vol. 8, No. 3, pp. 415-22 (1987) for a description of the experimental method). […] This was apparent starting at 8 weeks of treatment and persisted to a similar degree through to the six month termination point of the study.

[9] = test system: transgenic HD mice (N171-82Q); assay: Transgenic mouse model of Huntington's disease: survival; type: in vivo
Experimental: The effects of Compound B and vehicle on the survival of transgenic HD mice (N171-82Q) were evaluated. Thirteen mice (six male and seven female) were assigned to the Compound B treatment group, and fourteen mice (six male and eight female) were assigned to the vehicle treatment group. Treatment was continued until all the mice died.

[10] = test system: Transgenic HD mice of the N171-82Q strain; assay: Transgenic mouse model of Huntington's disease: behavioral testing (rotarod, locomotion); type: in vivo
Experimental: Transgenic HD mice of the […]-[…] strain and non-transgenic littermates were treated with NAALADase inhibitor Compound B (30 mg/kg) or a vehicle from 10 weeks of age. The mice were placed on a rotating rod (“rotarod”). The length of time at which the mouse fell off the rotarod was recorded as a measure of motor coordination. […] The treatment with Compound B had no effect on the rotarod performance of normal non-HD mice. The total distance traveled by the mice was also recorded as a measure of overall locomotion.

Structure (SMILES): O=C(O)CCC(CP(=O)(O)O)C(=O)O (stereo not shown) [Compound C, 2-(phosphonomethyl)pentanedioic acid]
- neuroprotective effect in presence of TGF-β neutralizing antibodies ([1]; FIG. 5): significantly attenuated the neuroprotective effect
- TGF-β1 levels ([1]; during occlusion and reperfusion, microdialysis, FIG. 6): significant rise
- TGF-β1 concentration ([2]; FIG. 1): increased concentrations
- TGF-β2 concentration ([2]; FIG. 2): increased concentrations
- neuroprotective effect in presence of TGF-β neutralizing antibodies ([2]; FIG. 3): blocked the neuroprotective effect
- neuroprotective effect in presence of FGF antibody ([2]; FIG. 4): did not block the neuroprotective effect
- difference scores between the two paws (withdrawal latency) [3]: dramatically normalized

Structure (SMILES): O=C(O)CCC(CP(=O)(O)Cc1c(F)c(F)c(F)c(F)c1F)C(=O)O (stereo not shown) [Compound A, 2-[[(2,3,4,5,6-pentafluorobenzyl)hydroxyphosphinyl]methyl]pentanedioic acid]
- remaining axons relative to saline-treated rats [4]: 3 times
- sensory nerve conduction velocity ([5]; after 8 weeks, FIG. 9B): significant improvement
- motor nerve conduction velocity ([5]; after 12 weeks, FIG. 9A): significant improvement
- hyperalgesic response (withdrawal latency difference score) [6]: completely reversed
- Difference in disease onset (treated versus vehicle) ([7]; Study 1, 50 mg/kg daily i.p.): 32
- Disease Onset For Compound A Treated Mice ([7]; Study 1, 50 mg/kg daily i.p., vehicle 189): 221 days
- Difference in disease onset (treated versus vehicle) ([7]; Study 2, 50 mg/kg daily i.p.): 25
- Disease Onset For Compound A Treated Mice ([7]; Study 2, 50 mg/kg daily i.p., vehicle 141): 166 days
- nerve conduction velocity ([8]; 10 mg/kg daily, versus diabetic vehicle controls, from 8 weeks to six months, FIG. 12): significantly less severe nerve conduction deficits
- withdrawal latency ([8]; 10 mg/kg i.p. daily, versus diabetic vehicle-treated rats, from 4 weeks through six months of treatment, FIG. 11): longer withdrawal latencies

Structure (SMILES): O=C(O)CCC(CCCS)C(=O)O (stereo not shown) [Compound B, 2-(3-sulfanylpropyl)pentanedioic acid]
- remaining axons relative to saline-treated rats [4]: twice
- median survival time ([9]; all treated transgenic HD mice, vehicle 158.5 days, p-value=0.07, FIG. 33): 184 days
- survival time ([9]; female transgenic HD mice versus vehicle, p-value=0.03, FIG. 35): significantly prolonged survival time
- rotarod performance ([10]; normal non-HD mice, 30 mg/kg): no effect
- rotarod performance (time on rotarod) ([10]; transgenic HD mice, 30 mg/kg from 10 weeks of age, versus vehicle, FIG. 31): stayed longer on the rotarod
